The results in this text go back to US7045512B2 (priority 2003, dated 2006).

The test system of test [1] is Phytophthora infestans. Put plainly: microbe, parasite or virus in culture. The test is classed as cell-based. As to conditions: Phytophthora infestans, 48 h, read-out: Percent Control Phytophthora infestants.
Test [2] relates to Rhizoctonia solani. The test can be described thus: microbe, parasite or virus in culture. It is filed as cell-based. As to conditions: Rhizoctonia solani, 48 h, read-out: Percent Control Rhizoctonia solani.
Test [3] relates to Fusarium nivale. The test can be described thus: microbe, parasite or virus in culture. The test is classed as cell-based. As to conditions: Microdochium nivale, 48 h, read-out: Percent Control Fusarium nivale.
For test [4], the system named is Pyricularia oryzae. Put plainly: whole plant or invertebrate. It is filed as in vivo. As to conditions: Pyricularia oryzae, foliar, read-out: Foliar Application (Percent Control) Rice Blast.
Test [5] deals with Sclerotium rolfsii. The test is classed as cell-based.
Test [6] concerns Cucumber Powdery Mildew. Put plainly: Soil drench for the control of cucumber powdery mildew. It is filed as in vivo. As to conditions: 300 ppm, greenhouse soil drench. On the procedure:
(§1) Soil Drench for the Control of Barley or Cucumber Powdery Mildew
(§2) Technical grade material formulated as described for foliar sprays is dispensed at defined rates (ml/cm^3) into the soil in the pots for barley and cucumber in the stages as described for the foliar sprays. Treated plants are inoculated, within 24 hours with the respective powdery mildew species as described for the foliar spray tests. Inoculated plants are kept in the greenhouse for 6–8 days for disease development. Disease severity is examined and the % control is calculated as [% disease on untreated plants−% disease on treated plants]/% disease on untreated plants. The results of these tests are shown in Table 2B below under the heading “Drench Application—Barley Powdery Mildew” and “Drench Application—Cucumber Powdery Mildew”.

The subject of test [7] is Botrytis cinerea. Put plainly: microbe, parasite or virus in culture. It is filed as cell-based. As to conditions: Botrytis cinerea, 48 h, read-out: Percent Control Botrytis cinerea.
Test [8] concerns Erysiyphe graminis f.sp. hordei. Put plainly: Foliar spray for the control of barley powdery mildew. As to conditions: Hordeum vulgare, greenhouse foliar spray, barley plants, read-out: Foliar Application (Percent Control) Barley Powdery Mildew. The test is classed as in vivo. On the procedure:
Foliar Spray for the Control of Barley Powdery Mildew caused by Erysiyphe graminis f.sp. hordei
Technical grade material at defined ppm rates (w/v) in an acetone:water mixture (1:9) containing 0.1% Tween 20 (v/v) is sprayed to near run-off onto 7-days-old greenhouse-grown barley plants (var. “Robust”) at the cotyledon stage. Treated plants are inoculated within 24 hours by brushing mildew-infected plants over the treated plants. Inoculated plants are kept in the greenhouse for 6–8 days for disease development. Disease severity is examined and the % control is calculated as [% disease on untreated plants−% disease on treated plants]/% diseases in untreated plants. The results of these tests are shown in Table 2A below under the heading “Foliar Application—Barley Powdery Mildew”.

The subject of test [9] is Uromyces appendiculatus. Put plainly: Foliar spray for the control of bean rust. It is filed as in vivo. As to conditions: 300 ppm, greenhouse foliar spray, Pinto bean plants. On the procedure:
Foliar Spray for the Control of Bean Rust Caused by Uromyces appendiculatus
Technical grade material at defined ppm rates (w/v) in an acetone:water mixture (1:9) containing 0.1% Tween 20 (v/v) is sprayed to near run-off onto 10-days-old greenhouse-grown Pinto bean plants (var. “Othello”) in the second leaf stage. Treated plants are inoculated within 24 hours with an aqueous suspension of approximately 20,000 uredospores of Uromyces appendiculatus harvested from rust-infected plants. Inoculated plants are placed into a high humidity chamber for 24 hr and then transferred to the greenhouse for two weeks for disease development. Disease severity is examined and the % control is calculated as [% disease on untreated plants−% disease on treated plants]/% disease on untreated plants. The results of these tests are shown in Table 2A below under the heading “Foliar Application—Bean Rust”.

Test [10] deals with Phytophthora infestans. The test is classed as in vivo. As to conditions: 300 ppm, greenhouse foliar spray, tomato plants.
Test [11] concerns Botrytis cinerea. The test can be described thus: Foliar spray for the control of geranium gray mold. The test is classed as in vivo. As to conditions: 300 ppm, greenhouse foliar spray, geranium plants. On the procedure: Foliar Spray for the Control of Geranium Gray Mold Caused by Botrytis cinerea
Technical grade material at defined ppm rates (w/v) in an acetone:water mixture (1:9) containing 0.1% Tween 20 (v/v) is sprayed to near run-off onto mature greenhouse-grown geranium plants (var. “Pinto White”) in the second leaf stage. Treated plants are inoculated within 24 hours with an aqueous suspension of approximately 100,000 conidia/ml of Botrytis cinerea grown on artificial medium. Inoculated plants are placed into a high humidity chamber for 5 days and then transferred to the greenhouse for one day for disease development. Disease severity is examined and the % control is calculated as [% disease on untreated plants−% disease on treated plants]/% disease on untreated plants. The results of these tests are shown in Table 2A below under the heading “Foliar Application—Geranium Gray Mold”.

Test [12] has as its system Barley Powdery Mildew. Put plainly: Soil drench for the control of barley powdery mildew. The test is classed as in vivo, Erysiyphe graminis f.sp. hordei. As to conditions: 300 ppm, greenhouse soil drench. On the procedure:
as §1, §2

In test [13] the test system is Helminthosporium sativum. Put plainly: Foliar spray for the control of barley blotch. It is filed as in vivo. As to conditions: Helminthosporium, greenhouse foliar spray, barley plants, read-out: Foliar Application (Percent Control) Barley Blotch. On the procedure:
Foliar Spray for the Control of Barley Blotch Caused by Helminthosporium sativum
Technical grade material at defined ppm rates (w/v) in an acetone:water mixture (1:9) containing 0.1% Tween 20 (v/v) is sprayed to near run-off onto 7-days-old greenhouse-grown barley plants (var. “Robust”) at the cotyledon stage. Treated plants are inoculated within 24 hours from spraying with an aqueous suspension of approximately 15,000 conidia/ml of Helminthosporium sativum grown on artificial medium. Inoculated plants are placed into a high humidity chamber for 24 hr and then transferred to the greenhouse for 4–5 days for disease development. Disease severity is examined and the % control is calculated as [% disease on untreated plants−% disease on treated plants]/% disease on untreated plants.
The results of these tests are shown in Table 2A below under the heading “Foliar Application—Barley Blotch”.

In test [14] the test system is Pythium ultimum. The test can be described thus: microbe, parasite or virus in culture. It is filed as cell-based. As to conditions: Globisporangium ultimum, 48 h, read-out: Percent Control Pythium ultimum.

In the case of `CC(C)OC(=O)NNc1ccc(Oc2cccc(C(F)(F)F)c2)cc1` [Compound 1, 1-methylethyl 2-[4-[3-(trifluoromethyl)phenoxy]phenyl]hydrazinecarboxylate], the inhibition of growth at 100 ppm in [1] turned out to be 100%; in test [2], 91%; in [3], 29%; in [7] it was 100%; in [14], 100%. Further, the pest or weed control at 300 ppm in [4] came out at 79%; in test [8], 90%; in [13], 97%. Further, the “Percent Control Sclerotium rolfsii” value in [5] worked out at 100%. Also, the “Drench Application (Percent Control) Cucumber Powdery Mildew” value in [6] is recorded as 0%. In addition, the “Foliar Application (Percent Control) Bean Rust” value in [9] came to 97%. Besides, the “Foliar Application (Percent Control) Tomato Late Blight” value in [10] is reported as 12%. The “Foliar Application (Percent Control) Geranium Gray Mold” value in test [11] is listed as 87%. Also, the “Drench Application (Percent Control) Barley Powdery Mildew” value in [12] is given as 0%.

As for `CC(C)OC(=O)NN(C(=O)C(F)(F)F)c1ccc(Oc2cccc(C(F)(F)F)c2)cc1` [Compound 2, 1-methylethyl 2-(trifluoroacetyl)-2-[4-[3-(trifluoromethyl)phenoxy]phenyl]-hydrazine carboxylate], the inhibition of growth at 100 ppm in test [1] stood at 100%; in [2] it was 82%; in test [3], 20%; in test [7], 90%; in [14], 100%. Further, the values for the pest or weed control at 300 ppm in test [4], in test [8] and in [13] were 15%, 25% and 99%, respectively. Further, the “Percent Control Sclerotium rolfsii” value in [5] turned out to be 67%. In addition, in test [6], the “Drench Application (Percent Control) Cucumber Powdery Mildew” value was 0%. Also, the “Foliar Application (Percent Control) Bean Rust” value in test [9] is on record as 0%. In addition, the “Drench Application (Percent Control) Barley Powdery Mildew” value in [12] is 0%.

As to `CC(C)OC(=O)NN(C)c1ccc(Oc2cccc(C(F)(F)F)c2)cc1` [Compound 3, 1-methylethyl 2-methyl-2-[4-[3-(trifluoromethyl)phenoxy]phenyl]hydrazine carboxylate], the inhibition of growth at 50 ppm was determined as 79% in test [1]; 63% in test [2]; 82% in [3]; 100% in [7]; 100% in [14]. For the same molecule, the results for the pest or weed control at 300 ppm in [4], in [8] and in [13] were 10%, 62% and 0%, respectively. Moreover, the “Drench Application (Percent Control) Cucumber Powdery Mildew” value in test [6] came to 0%. The “Foliar Application (Percent Control) Bean Rust” value in [9] worked out at 0%. For the same molecule, in [11], the “Foliar Application (Percent Control) Geranium Gray Mold” value was 87%. The “Drench Application (Percent Control) Barley Powdery Mildew” value in [12] worked out at 0%.

Consider `CC(=O)NNc1ccc(Oc2cccc(C(F)(F)F)c2)c(F)c1` [Compound 7, N′-{3-fluoro-4-[3-(trifluoromethyl)phenoxy]phenyl}acetohydrazide], for which the inhibition of growth at 10 ppm in test [1] was 0%; in test [2] it was 80%; in test [3], 8%; in [7], 30%; in test [14], 8%. The values for the pest or weed control at 300 ppm in [4], in [8] and in test [13] were 0%, 80% and 80%, respectively. Besides, in test [10], the “Foliar Application (Percent Control) Tomato Late Blight” value amounted to 0%. For the same molecule, the “Foliar Application (Percent Control) Geranium Gray Mold” value in [11] turned out to be 80%.

In the case of `CC(C)OC(=O)NNc1ccc(-c2cccc(C(F)(F)F)c2)c(F)c1` [Compound 8, isopropyl 2-[2-fluoro-3′-(trifluoromethyl)-1,1′-biphenyl-4-yl]hydrazine-carboxylate], the inhibition of growth at 10 ppm in test [1] came to 18%; in test [2], 58%; in [3] it was 22%; in test [7], 63%; in test [14] it was 26%. Besides, the pest or weed control at 300 ppm in [4] was 70%; in test [8], 0%; in test [13], 98%. Further, the “Foliar Application (Percent Control) Tomato Late Blight” value in [10] is 0%. Further, the “Foliar Application (Percent Control) Geranium Gray Mold” value in [11] is on record as 90%.

Take `CC(C)OC(=O)N=Nc1ccc(Oc2cccc(C(F)(F)F)c2)cc1` [Compound 9, 1-methylethyl [4-[3-(trifluoromethyl)phenoxy]phenyl]diazene carboxylate]: the inhibition of growth at 100 ppm in test [1] was 9%; in [2] it was 22%; in [3], 75%; in test [7] it was 77%; in test [14], 0%. Moreover, the pest or weed control at 300 ppm in test [4] is 98%; in test [8], 15%; in test [13] it was 97%. Also, the “Percent Control Sclerotium rolfsii” value in [5] stood at 91%. The “Drench Application (Percent Control) Cucumber Powdery Mildew” value in test [6] came out at 0%. Further, in test [9], the “Foliar Application (Percent Control) Bean Rust” value worked out at 45%. Besides, the “Drench Application (Percent Control) Barley Powdery Mildew” value in [12] was found to be 25%.

`CC(C)OC(=O)N1CN(C)CN1c1ccc(Oc2cccc(C(F)(F)F)c2)c(F)c1` [Compound 10, 1-methylethyl 2-[3-fluoro-4-[3-(trifluoromethyl)phenoxy]phenyl]-4-methyl-1,2,4-triazolidine-1-carboxylate]: the inhibition of growth at 100 ppm turned out to be 0% in test [1]; 79% in test [2]; 0% in test [3]; 0% in test [7]; 0% in test [14]. Moreover, the pest or weed control at 300 ppm in [4] is 0%; in [8], 100%; in test [13], 90%. Moreover, the “Foliar Application (Percent Control) Geranium Gray Mold” value in test [11] turned out to be 0%.

As to `CCC(=NNc1ccc(Oc2cccc(C(F)(F)F)c2)c(F)c1)[N+](=O)[O-]` [Compound 12, 1-{3-fluoro-4-[3-(trifluoromethyl)phenoxy]phenyl}-2-(1-nitropropylidene)-hydrazine], the inhibition of growth at 10 ppm was 0% in test [1]; 68% in test [2]; 20% in [3]; 18% in test [7]; 3% in test [14]. Besides, the pest or weed control at 300 ppm in test [4] was 0%; in [8], 80%; in test [13] it was 0%. Also, the “Foliar Application (Percent Control) Tomato Late Blight” value in test [10] was determined as 0%. Moreover, in [11], the “Foliar Application (Percent Control) Geranium Gray Mold” value worked out at 0%.
